Data on one compound can be found in patent US20260183420A1, “ACTIVATED NANOTHERAPY FOR SICKLE CELL DISEASE” (UNIVERSITY OF MARYLAND, BALTIMORE, priority 2022, published 2026).

Data set [1] has as its target T1, Hb (HbS) in human SS RBCs (Homo sapiens, UniProt P69905).
T1 construct: endogenous in cells; host or cells: red blood cells from patients with sickle cell disease (human SS RBCs)
The data set is described as follows: 5-HMF-induced Hb modification quantitated by cation exchange HPLC in RBCs from SCD patients. The class given is cell-based. As for the experimental part: HPLC was performed to detect binding of an allosteric effector to Hb.
(§1) FIG. 19A presents illustrative chromatograms (standards & samples).
(§2) 5-HMF-induced Hb modification was quantitated by HPLC (Waters™ e2695XE Alliance™, Swift WCX-PEEK); O2 dissociation curves (ODC) were measured in intact RBCs (HEMOX Analyzer); pO2's at the point of sickling (POS) and point of unsickling (POU) were determined during controlled Hb O2 unloading/loading, respectively (LORRCA Oxygenscan RR Mechatronics).
See data in FIG. 21A and FIG. 21B (control patients) and FIG. 21C and FIG. 21D (SCD patients).

For data set [2], the target named is T2, Hb (HbO2 affinity) in intact SRBCs (Homo sapiens, UniProt P69905).
T2 construct: endogenous in cells; host or cells: red blood cells from patients with sickle cell disease (human SS RBCs)
The data set is described as follows: O2 dissociation curve / HbO2 affinity (p50) in intact SRBCs (HEMOX Analyzer). Type of data set: cell-based. The settings on record: pH 7.4, 5 mM 5-HMF, 1 hour, intact SCD RBCs. How it is done: Hemox analysis methods determine oxygen partial pressure and the degree of hemoglobin saturation with oxygen using a Clark oxygen electrode and spectrophotometry, respectively.
as §1, §2
(§3) After either 1 hour or 3 hours, either or both oxygen dissociation curves (ODC) or laser ektacytometry was performed to measure either or both p50 and POS/POR. […] As for PK data, effect upon p50 and POS/POR appear to progress from 1 hour to 3 hours. […] See also the results in FIG. 23. CNP=carbon nanoparticle.

Data set [3] concerns human SS RBCs. The experiment in a line: Laser ektacytometry during controlled deoxygenation/reoxygenation (LORRCA Oxygenscan): POS, POR, elongation index. Type of data set: cell-based. Particulars: 1 hour.
From the text: The LORRCA red blood cell analysis platform was used to obtain information on deformability (cell and cell membrane stability), including under an osmotic gradient (osmotic resistance). The platform also can provide data on aggregation tendency and kinetics and measure the relative oxygen pressure at the critical point when the red blood cells start to sickle. Here, RBC Osmotic Fragility (elongation index (EI) vs. osmolality at specific sheer), RBC Deformability (EI vs sheer at specific osmolality), and RBC Oxyscan Sickling Characteristics (EI vs pO2) were determined. See, for example, FIG. 5.
See FIG. 6 for a description of how EI is calculated. See FIG. 7 for an example calculation of Oxyscan analysis parameters. […] LORRCA determines POS as the pO2 corresponding to a 5% decrease in EImax. If the EI is not completely stable at high pO2 (i.e., the Oxyscan baseline is not level), POS is calculated to be artificially high. FIG. 9 is a graph showing an example point of sickling (POS) determination from “first derivative,” which is taken from the plot. A common method to process, the first derivative of a spectrum is the rate of change of absorbance with respect to wavelength.
as §1, §2, §3

Data set [4] has as its system RBCs from subjects without sickle cell disease. The data set is described as follows: RBC lysis, blood from subjects without sickle cell disease. Type of data set: cell-based, human. Particulars: healthy blood, 1-hour incubation at 37° C. As for the experimental part:
Blood samples (RBCs) from subjects without sickle cell disease were tested with compounds to determine whether the compounds have any impact on RBC physiology, including tests for lysis, LORRCA (deformability and osmotic fragility), and HEMOX (ODC (p50) and cooperativity (Hill number)) after a 1-hour incubation at 37° C. See FIG. 33 for results for HPLC analysis of Hb modification; FIG. 34 for results for % RBC lysis for control blood (combined); FIG. 35 for results as shown; FIG. 36 for results for RBC osmotic fragility; and FIG. 37 for p50 and Hill number results for the oxygen dissociation curve (ODC).

The conditions of data set [5]: human trials; cited from earlier work.

As a reminder, the half-life is how long it takes for the measured level to halve.

T1 sequence (P69905 2-142): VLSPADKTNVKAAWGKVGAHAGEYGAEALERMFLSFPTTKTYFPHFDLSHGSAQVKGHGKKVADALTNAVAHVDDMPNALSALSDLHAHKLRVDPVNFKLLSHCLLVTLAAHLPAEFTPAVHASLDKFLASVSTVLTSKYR
T1 sequence (P68871 with tags, fused parts or gaps E7V partner): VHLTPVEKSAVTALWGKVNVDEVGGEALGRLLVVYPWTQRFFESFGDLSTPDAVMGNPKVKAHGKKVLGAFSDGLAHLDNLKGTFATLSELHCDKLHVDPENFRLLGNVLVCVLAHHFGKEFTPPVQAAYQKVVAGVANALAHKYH
T2 sequence (P69905 2-142): as the sequence (P69905 2-142) above
T2 sequence (P68871 with tags, fused parts or gaps E7V partner): as the sequence (P68871 with tags, fused parts or gaps E7V partner) above

As to `O=Cc1ccc(CO)o1` [Nanoparticle 5-HMF, 5-(hydroxymethyl)furfural], the “5-HMF induced Hb modification (maximal)” value in data set [1] (SCD RBCs, 20% Hct, 37° C., 1 hour, 5 mM 5-HMF) is recorded as “about 75%”. In data set [1] (equimolar for 5-HMF (5 mM), 0.25-24 hours), the “relative efficacy for % 5-HMF adducted Hb (ranking high to low)” value was “(high to low): free CoNP, 5-HMF, LP, CD, LNP”. The “ODC p50” value in data set [2] is 20.3±1.5 Torr. In data set [3] (0 vs 5 mM 5-HMF), this compound registered a POR decrease of 45% and a POS decrease of 30%. In addition, the “pO2 at point of sickling (POS)” value in data set [3] (5 mM 5-HMF, SCD RBCs) was determined as 39.8±11.6 Torr. In data set [4], the “RBC lysis versus PBS control” value was “no difference”. Further, in data set [5], the bioavailability entry was “low bioavailability” and the half-life is recorded as about 1 h.
